In general, Kd refers to a measure of binding affinity in units of concentration. Read a low Kd as a tighter complex.

Molecules are shown by their SMILES.

In one assay the target is β2-AR control (–) sensor. Briefly: [3H]-DHA saturation binding (KD). Set-up: species or system human. The note with it: control sensor membranes. Here is the method:
(§1) Radio-ligand assays followed the previously published protocol. […]; PerkinElmer) for 90 min at room temperature in Tris-Buffered-Saline (TBS) pH 7.4. Samples were transferred to GF/C membranes pre-treated with 0.3% PEI solution in TBS, washed extensively with cold TBS, and dried over night at room temperature. […] Each experiment was done at least twice with different membrane preparations, with three separate samples prepared per condition, per experiment.

In the next assay the target is β2-AR-Gs sensor. Briefly: [3H]-DHA saturation binding (KD). Set-up: species or system human. Conditions: β2-AR-Gs sensor membranes. Here is the method: as §1
For assay [1], the system named is α2-AR-Gi fusion. Conditions: 100 μM / 1 mM (Fig. 3 legend), live cells.
Experimental: Change in FRET (ΔFRET) was calculated as FRETligand – FRETbuffer.
Assay [2] has as its system α2-AR-Gi fusion. Conditions: 100 μM, 1 μM forskolin; α2-AR-Gi compared to α2-AR alone (–).

Consider `CCCc1ccccc1OCC(O)CNC(C)C` (stereo not shown) [[^3H]-DHA, [^3H]-dihydroalprenolol], for which the Kd on β2-AR control (–) sensor and at β2-AR-Gs sensor was approximately 0.2 nM each time.
Compound `CNC[C@H](O)c1ccc(O)c(O)c1` [epinephrine] displayed a ΔFRET in the assay on α2-AR-Gi fusion [1] of 0.01 ± 0.002. Further, the “loss in cAMP signaling (inhibition of forskolin induced cAMP)” value with α2-AR-Gi fusion [2] is “greater loss in cAMP signaling”.

These data come from PMC5552854, “ER/K linked GPCR-G protein fusions systematically modulate second messenger response in cells” (Scientific Reports, 2017).
